Results as given in patent publication US20240067673A1, “MODIFIED NUCLEOSIDE OR NUCLEOTIDE” (BIG SHENZHEN, priority 2020, published 2024).

Test system: DNA nanospheres prepared by using E. coli sequencing library
Experiment: Evaluation of blocking effect (incorporation and cleavage efficiency) on MGISEQ2000 sequencer
Type: biochemical
Details: for Cleavage efficiency (EC): ratio of Cleavage efficiency values for testing nucleotide and comparative nucleotide, thpp reagent, 65° C. 1 min, dTTP analogue; for Incorporation efficiency (EI): ratio of Incorporation efficiency values for testing nucleotide and comparative nucleotide (standard cold dNTP), dTTP analogue as cold dNTP
Procedure: 1. Evaluation of Blocking Effect
For each test, only one of the nucleotide analogues cold dNTP of the invention (dTTP, dATP, dCTP, and dGTP) was used. For ease of presentation, only testing results for dTTP were provided in the following table 1 for each kind of 3′-OH modification.
Sequencing was conducted according to the operation protocol of MGISEQ2000 sequencer, using the above nucleotide substrates and MGISEQ-2000RS high-throughput sequencing kit (FCL SE50).
(1) Preparing DNA nanospheres by using E. coli sequencing library;
(2) Loading DNA nanospheres onto the MGISEQ2000 sequencing chip;
(3) Amounting the loaded sequencing chip onto the MGISEQ2000 sequencer and set the sequencing process;
(4) Performing Test Round 1: incorporating standard hot dNTP, taking photos for recording signal value, and then cleaving the blocking group with thpp reagent, 65° C. 1 min.
(5) Performing Test Round 2: incorporating standard cold dNTP, then incorporating standard hot dNTP, taking photos for recording signal value, and then cleaving blocking group with thpp reagent, 65° C. 1 min.
(6) Performing Test Round 3: incorporating standard hot dNTP, taking photos for recording signal value, and then cleaving blocking group with thpp reagent, 65° C. 1 min.
(7) Performing Test Round 4: incorporating nucleotide analogues cold dNTP of the invention (only one kind of cold dNTP incorporated for each test), then incorporating standard hot dNTP, taking photos for recording signal value, and then cleaving blocking group with thpp reagent, 65° C. 1 min.
(8) Performing Test Round 5: incorporating standard hot dNTP, taking photos for recording signal value.
(9) Evaluating Incorporation efficiency and Cleavage efficiency.
Equation for Calculating Incorporation Efficiency: […]
wherein: • EI (Incorporation efficiency) is the ratio of Incorporation efficiency values for testing nucleotide and comparative nucleotide; • C1 is signal value of Test Round 1; • C2 is signal value of Test Round 2; • C3 is signal value of Test Round 3; • C4 is signal value of Test Round 4;
Equation for Calculating Cleavage Efficiency: […]
wherein: • Ec (Cleavage efficiency) is the ratio of Cleavage efficiency values for testing nucleotide and comparative nucleotide; • EI is the ratio of Incorporation efficiency values for testing nucleotide and comparative nucleotide; • C3 is signal value of Test Round 3; • C5 is signal value of Test Round 5; • CGT is the signals of base C, base G and base T in Test Round 3.

| Compound | Cleavage efficiency (EC) | Incorporation efficiency (EI) |
| --- | --- | --- |
| Cc1cn([C@H]2CC(OC(=O)c3ccccc3C(C)SSCC(C)C)[C@@H](COP(=O)(O)OP(=O)(O)OP(=O)(O)O)O2)c(=O)[nH]c1=O (stereo partly shown) | 98% | 90% |
| Cc1cn([C@H]2CC(OC(=O)Cc3ccccc3CN=[N+]=[N-])[C@@H](COP(=O)(O)OP(=O)(O)OP(=O)(O)O)O2)c(=O)[nH]c1=O (stereo partly shown) | 89% | 95% |
| Cc1cn([C@H]2CC(OC(=O)Cc3ccccc3C(C)N=[N+]=[N-])[C@@H](COP(=O)(O)OP(=O)(O)OP(=O)(O)O)O2)c(=O)[nH]c1=O (stereo partly shown) | 91% | 98% |
| Cc1cn([C@H]2CC(OC(=O)c3occc3CN=[N+]=[N-])[C@@H](COP(=O)(O)OP(=O)(O)OP(=O)(O)O)O2)c(=O)[nH]c1=O (stereo partly shown) | 5% | 101% |
| COc1ccc(C(=O)OC2C[C@H](n3ccc(N)nc3=O)O[C@@H]2COP(=O)(O)OP(=O)(O)OP(=O)(O)O)c(C(C)SSC)c1 (stereo partly shown) | 101% | 104% |
| Cc1cn([C@H]2CC(OC(=O)c3ccccc3C(C)N=[N+]=[N-])[C@@H](COP(=O)(O)OP(=O)(O)OP(=O)(O)O)O2)c(=O)[nH]c1=O (stereo partly shown) | 105% | 101% |
| Cc1cn([C@H]2CC(OC(=O)c3cccnc3C(C)N=[N+]=[N-])[C@@H](COP(=O)(O)OP(=O)(O)OP(=O)(O)O)O2)c(=O)[nH]c1=O (stereo partly shown) | 115% | 100% |
| Cc1cn([C@H]2CC(OC(=O)CCCN=[N+]=[N-])[C@@H](COP(=O)(O)OP(=O)(O)OP(=O)(O)O)O2)c(=O)[nH]c1=O (stereo partly shown) | 36% | 95% |
| Cc1cn([C@H]2CC(OC(=O)c3ccccc3C(C)SSC(C)C)[C@@H](COP(=O)(O)OP(=O)(O)OP(=O)(O)O)O2)c(=O)[nH]c1=O (stereo partly shown) | 103% | 95% |
| CSSC(C)c1ccccc1C(=O)OC1C[C@H](n2cc(C)c(=O)[nH]c2=O)O[C@@H]1COP(=O)(O)OP(=O)(O)OP(=O)(O)O (stereo partly shown) | 111% | 100% |
| Cc1cn([C@H]2CC(OC(=O)c3ccc([N+](=O)[O-])cc3CN=[N+]=[N-])[C@@H](COP(=O)(O)OP(=O)(O)OP(=O)(O)O)O2)c(=O)[nH]c1=O (stereo partly shown) | 112% | 101% |
| Cc1cn([C@H]2CC(OC(=O)c3ccccc3CCN=[N+]=[N-])[C@@H](COP(=O)(O)OP(=O)(O)OP(=O)(O)O)O2)c(=O)[nH]c1=O (stereo partly shown) | Incorporation efficiency (EI) 100% Cleavage efficiency (EC) 100% | Incorporation efficiency (EI) 100% Cleavage efficiency (EC) 100% |
| Cc1cn([C@H]2CC(OC(=O)c3cccnc3C(C)(C)N=[N+]=[N-])[C@@H](COP(=O)(O)OP(=O)(O)OP(=O)(O)O)O2)c(=O)[nH]c1=O (stereo partly shown) | 110% | 95% |
| CSSC(C)c1cc(NC(C)=O)ccc1C(=O)OC1C[C@H](n2cc(C)c(=O)[nH]c2=O)O[C@@H]1COP(=O)(O)OP(=O)(O)OP(=O)(O)O (stereo partly shown) | 98% | 100% |
| CCSSC(C)c1ccccc1C(=O)OC1C[C@H](n2cc(C)c(=O)[nH]c2=O)O[C@@H]1COP(=O)(O)OP(=O)(O)OP(=O)(O)O (stereo partly shown) | 110% | 100% |
| COc1ccc(C(=O)OC2C[C@H](n3cc(C)c(=O)[nH]c3=O)O[C@@H]2COP(=O)(O)OP(=O)(O)OP(=O)(O)O)c(C(C)N=[N+]=[N-])c1 (stereo partly shown) | 98% | 101% |
| Cc1cn([C@H]2CC(OC(=O)c3ccccc3CN=[N+]=[N-])[C@@H](COP(=O)(O)OP(=O)(O)OP(=O)(O)O)O2)c(=O)[nH]c1=O (stereo partly shown) | 91% | 98% |
